This passage reports IC50 results from the Kinase Knowledgebase extract (Sharma et al. 2016).

Holding throughout (assay): Enzyme Assay
Experiment [1] deals with PIK3CB (Human) (UniProt P42338).
Experiment [2] deals with PIK3CD (Human) (UniProt O00329).
The target of experiment [3] is PIK3CG (human) (UniProt P48736).
Chain of PIK3CG (human) (P48736 whole entry, looked up): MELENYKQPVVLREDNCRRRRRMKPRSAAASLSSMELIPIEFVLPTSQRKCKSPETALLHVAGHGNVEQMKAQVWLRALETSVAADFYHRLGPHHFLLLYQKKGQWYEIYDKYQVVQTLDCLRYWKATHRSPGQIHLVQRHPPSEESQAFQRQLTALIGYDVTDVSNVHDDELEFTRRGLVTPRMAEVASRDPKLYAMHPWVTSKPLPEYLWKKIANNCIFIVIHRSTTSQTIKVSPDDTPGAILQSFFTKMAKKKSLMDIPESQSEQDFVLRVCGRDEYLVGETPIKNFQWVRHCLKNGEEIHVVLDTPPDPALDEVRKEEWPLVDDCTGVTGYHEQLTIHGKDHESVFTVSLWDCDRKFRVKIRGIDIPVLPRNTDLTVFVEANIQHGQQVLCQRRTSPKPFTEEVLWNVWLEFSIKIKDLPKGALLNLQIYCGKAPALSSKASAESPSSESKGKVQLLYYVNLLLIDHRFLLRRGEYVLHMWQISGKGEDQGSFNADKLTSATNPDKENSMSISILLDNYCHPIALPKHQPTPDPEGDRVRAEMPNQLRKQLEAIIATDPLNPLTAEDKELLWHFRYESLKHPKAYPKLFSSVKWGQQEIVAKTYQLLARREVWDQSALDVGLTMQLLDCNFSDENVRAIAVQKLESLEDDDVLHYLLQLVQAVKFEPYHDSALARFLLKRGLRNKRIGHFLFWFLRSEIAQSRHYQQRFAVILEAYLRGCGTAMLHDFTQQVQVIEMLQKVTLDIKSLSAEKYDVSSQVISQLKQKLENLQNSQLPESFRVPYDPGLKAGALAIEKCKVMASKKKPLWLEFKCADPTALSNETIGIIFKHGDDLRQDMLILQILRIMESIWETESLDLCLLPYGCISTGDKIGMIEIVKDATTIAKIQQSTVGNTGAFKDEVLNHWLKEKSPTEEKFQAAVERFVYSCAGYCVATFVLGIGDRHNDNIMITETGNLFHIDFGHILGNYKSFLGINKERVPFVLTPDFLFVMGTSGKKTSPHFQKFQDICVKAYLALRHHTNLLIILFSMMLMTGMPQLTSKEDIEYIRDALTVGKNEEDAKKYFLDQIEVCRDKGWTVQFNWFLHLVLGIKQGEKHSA

Chain of PIK3CB (Human) (P42338 whole entry, looked up): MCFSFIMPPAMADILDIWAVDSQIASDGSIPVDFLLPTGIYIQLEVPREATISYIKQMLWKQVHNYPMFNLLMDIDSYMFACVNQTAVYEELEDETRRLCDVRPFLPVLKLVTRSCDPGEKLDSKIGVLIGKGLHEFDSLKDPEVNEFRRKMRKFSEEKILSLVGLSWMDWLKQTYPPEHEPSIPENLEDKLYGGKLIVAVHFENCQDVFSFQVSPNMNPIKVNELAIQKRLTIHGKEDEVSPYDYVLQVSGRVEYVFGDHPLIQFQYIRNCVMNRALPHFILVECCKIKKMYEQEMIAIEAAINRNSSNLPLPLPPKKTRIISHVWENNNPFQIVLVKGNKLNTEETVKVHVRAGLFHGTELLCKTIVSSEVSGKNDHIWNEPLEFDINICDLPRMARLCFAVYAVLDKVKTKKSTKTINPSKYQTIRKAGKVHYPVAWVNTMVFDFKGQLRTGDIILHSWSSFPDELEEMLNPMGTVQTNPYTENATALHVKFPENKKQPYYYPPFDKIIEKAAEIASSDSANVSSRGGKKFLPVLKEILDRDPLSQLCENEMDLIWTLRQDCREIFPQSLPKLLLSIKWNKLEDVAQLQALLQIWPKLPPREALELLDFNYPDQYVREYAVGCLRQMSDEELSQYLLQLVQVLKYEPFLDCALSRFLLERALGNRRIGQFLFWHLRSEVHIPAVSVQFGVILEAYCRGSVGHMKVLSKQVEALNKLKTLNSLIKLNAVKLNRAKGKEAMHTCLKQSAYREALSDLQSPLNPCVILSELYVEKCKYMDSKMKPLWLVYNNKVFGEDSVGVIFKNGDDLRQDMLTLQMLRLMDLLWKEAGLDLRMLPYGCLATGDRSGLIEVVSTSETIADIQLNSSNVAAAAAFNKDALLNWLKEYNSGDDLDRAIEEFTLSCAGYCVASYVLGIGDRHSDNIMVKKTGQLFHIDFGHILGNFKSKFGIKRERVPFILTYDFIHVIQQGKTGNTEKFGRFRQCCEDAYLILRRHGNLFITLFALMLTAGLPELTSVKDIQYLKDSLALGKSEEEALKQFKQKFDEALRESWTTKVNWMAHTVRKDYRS
Chain of PIK3CD (Human) (O00329 whole entry, looked up): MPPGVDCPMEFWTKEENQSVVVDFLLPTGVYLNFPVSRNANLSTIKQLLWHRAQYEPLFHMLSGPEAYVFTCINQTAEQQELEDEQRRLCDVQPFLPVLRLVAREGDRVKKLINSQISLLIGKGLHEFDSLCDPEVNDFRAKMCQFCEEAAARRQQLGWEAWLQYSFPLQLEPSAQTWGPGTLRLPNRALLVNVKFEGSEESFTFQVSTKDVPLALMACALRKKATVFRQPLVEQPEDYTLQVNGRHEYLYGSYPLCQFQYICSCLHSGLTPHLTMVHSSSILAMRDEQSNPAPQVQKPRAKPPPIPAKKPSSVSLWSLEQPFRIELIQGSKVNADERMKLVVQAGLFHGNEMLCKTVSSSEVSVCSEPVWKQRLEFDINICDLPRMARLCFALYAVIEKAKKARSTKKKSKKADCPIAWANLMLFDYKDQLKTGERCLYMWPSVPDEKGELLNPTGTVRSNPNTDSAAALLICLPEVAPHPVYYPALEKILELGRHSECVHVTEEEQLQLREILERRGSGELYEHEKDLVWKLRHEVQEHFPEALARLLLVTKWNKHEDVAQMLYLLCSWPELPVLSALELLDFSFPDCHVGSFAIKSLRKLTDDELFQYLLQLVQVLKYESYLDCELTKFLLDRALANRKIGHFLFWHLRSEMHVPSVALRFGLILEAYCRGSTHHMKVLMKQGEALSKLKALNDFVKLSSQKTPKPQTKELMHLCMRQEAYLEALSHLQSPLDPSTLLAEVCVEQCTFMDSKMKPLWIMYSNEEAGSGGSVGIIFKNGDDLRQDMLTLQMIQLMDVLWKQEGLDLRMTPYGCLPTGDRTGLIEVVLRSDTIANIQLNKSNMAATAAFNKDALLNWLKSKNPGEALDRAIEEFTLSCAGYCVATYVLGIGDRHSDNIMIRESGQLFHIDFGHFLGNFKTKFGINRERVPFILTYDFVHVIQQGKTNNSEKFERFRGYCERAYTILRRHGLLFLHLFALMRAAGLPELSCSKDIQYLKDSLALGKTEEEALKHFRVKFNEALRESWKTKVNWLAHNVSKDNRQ

Broadly, the IC50 is the concentration that inhibits the measured activity by half. A low value points to inhibition by little substance. For the compound `C[C@H]1CN(c2nc(N)nc3c2C(=O)CCN3)[C@@H]1c1nn2ccc(Cl)c2c(=O)n1-c1ccccn1`, the IC50 in experiment [1] turned out to be 1580 nM; in experiment [2] it was 12 nM; in experiment [3] it was 18 nM.

Consider `O=c1c2c(Br)ccn2nc([C@@H]2CCN2c2ncnc3[nH]cnc23)n1-c1ccccc1`, for which the IC50 was 156 nM in experiment [2] and 287 nM in experiment [3].

Consider `C[S@@+]([O-])c1c[nH]c2ncnc(N3C[C@@H](C#N)C[C@H]3c3nn4ccc(Cl)c4c(=O)n3-c3ccccc3)c12`, for which the IC50 stood at 64 nM in experiment [2] and 16 nM in experiment [3].

As to `COc1ncc(-c2n[nH]c3ncnc(N4CCC[C@H]4c4nn5ccc(Cl)c5c(=O)n4-c4ccccc4)c23)cn1`, the IC50 is 47 nM in experiment [1], 1 nM in experiment [2] and 15 nM in experiment [3].

In the case of `CC(Nc1ncnc2[nH]cc(C#N)c12)c1cc2cccn2c(=O)n1-c1ccccc1` (configuration not stated), the IC50 in experiment [3] came out at 105 nM.

On to `N#Cc1c(N)ncnc1OCc1cc2ncc(Cl)n2c(=O)n1-c1ccccc1`, for which the IC50 in experiment [2] was 136 nM.

As for `Nc1ncc([N+](=O)O)c(N2CC[C@H]2c2nn3ccc(Cl)c3c(=O)n2-c2ccccc2)n1`, the IC50 in experiment [2] was found to be 40 nM; in experiment [3], 25 nM.

As to `C=Cc1ccn2nc([C@@H]3CCN3c3ncnc4[nH]cc(C#N)c34)n(-c3ccccc3)c(=O)c12`, in experiment [2], the IC50 worked out at 300 nM.

In the case of `Nc1ncc(C(=O)C(F)F)c(N2CC[C@H]2c2nn3ccc(Cl)c3c(=O)n2-c2ccccc2)n1`, the IC50 in experiment [2] came out at 38 nM; in experiment [3], 10 nM.

For the compound `N#Cc1c[nH]c2ncnc(N3CC[C@H]3c3nn4cccc4c(=O)n3-c3ccccc3)c12`, in experiment [2], the IC50 was found to be 93 nM. This lies in the double-digit nanomolar range.

As to `N#Cc1n[nH]c2ncnc(N3CCC[C@H]3c3nn4cccc4c(=O)n3-c3ccccc3)c12`, the IC50 in experiment [2] is 26 nM; in experiment [3] it was 231 nM.

Regarding `C[S@+]([O-])c1c[nH]c2ncnc(N3C[C@@H](C#N)C[C@H]3c3nn4ccc(Cl)c4c(=O)n3-c3ccccc3)c12`, the IC50 was determined as 256 nM in experiment [1], 21 nM in experiment [2] and 38 nM in experiment [3].

Consider `Nc1nc(N2CCC[C@H]2c2nn3cccc3c(=O)n2-c2ccccc2)c2nc[nH]c2n1`, for which the IC50 in experiment [2] came out at 6 nM; in experiment [3], 40 nM.

In the case of `COc1cccc(-n2c([C@@H]3CCCN3c3ncnc4[nH]cc(C#N)c34)nn3cccc3c2=O)c1`, the IC50 in experiment [2] turned out to be 5 nM; in experiment [3], 89 nM.
